Source: patent US11845828B2, “Polymerizable composition for optical material, optical material, and producing method thereof” (Mitsui Chemicals, Inc., priority 2016, dated 2023)

Test: pKa value (acid dissociation index) of compound (A)

| SMILES | pKa |
| --- | --- |
| Clc1cccnc1 [Example A3, 3-chloropyridine] | 2.84 |
| Cc1cccc(C)n1 [Example A5, 2,6-lutidine] | 6.6 |
| Cc1cc(C)nc(C)c1 [Example A6, 2,4,6-trimethylpyridine] | 7.48 |
| CCCCCCCCN(CCCCCCCC)CCCCCCCC [Example A7, trioctylamine] | 8.35 |
